Experimental data from patent publication US7541366B2, “Pyrrolo[3,2-c]pyridine derivatives and processes for the preparation thereof” (YUHAN Corporation, priority 2004, dated 2009).
Where a name gives a salt, the structure may show the parent alone.

Molecular target: T1, proton pump (H+/K+-ATPase) (Sus scrofa, UniProt P19156)
T1 construct: used as an enzyme source of the in vitro enzyme reaction assay of proton pump; from tissue; host or cells: hog gastric fundic mucosa; membrane vesicles, lyophilized
Assay: Inhibitory effects on proton pump (H+/K+-ATPase) activity
Assay type: biochemical
Conditions: hog gastric vesicles, K+ stimulated H+/K+-ATPase activity, Pi at 620 nm, 30 minutes at 37° C.
Procedure: 1-1. Preparation of gastric proton pump vesicles
The hog fundic regions containing parietal and peptic cells were scraped with slide-glass. The collected cells were suspended in 10 ml of 0.25M sucrose buffer and homogenized using a tight-fitting Teflon-glass homogenizer. The homogenate was centrifuged for 35 min at 8,000 rpm and the pellet was discarded. The supernatant was further centrifuged for 75 min at 25,000 rpm. The resulting pellets were re-suspended in the sucrose buffer (10 ml), and then the suspension was laid onto discontinuous density gradients consisting of 0.25M sucrose buffer and isolation medium containing 9% Ficoll (w/w). After being centrifuged for 3 hours and 15 minutes at 100,000×g, the material at the interface of sucrose buffer and Ficoll solution was collected and then centrifuged for 40 minutes at 100,000×g. The resulting pellets were re-suspended in 1 ml of 5 mM Hepes/Tris buffer (pH 6.1). This material was lyophilized and stored at −70° C. and used as an enzyme source of the in vitro enzyme reaction assay of proton pump.
1-2. Measurement of inhibitory effects on proton pump (H^+/K^+-ATPase) activity
The inhibitory effects of the compounds of the present invention against proton pump activity were evaluated in 96-well plate. In this assay, the K^+specific H^+/K^+-ATPase activity was calculated based on the difference between the activity of H^+/K^30 -ATPase activity with K^30 and without K^30 ion. In 96-well plate, 1% dimethylsulfoxide (DMSO) in buffer was added to negative and positive control groups and the diluted compounds of the present invention in buffer were added to test group. All assays were performed in 100μl reaction volume at room temperature, and the hog gastric vesicle was kept in ice before use. At the beginning of the reaction, 10μl of reaction buffer containing 1% DMSO was added to the negative and positive control groups and to reaction buffer each concentration of compounds in the test group. Then lyophilized vesicle in 5mM Pipes/Tris buffer (pH 6.1) was pre-incubated in the presence of various concentrations of test compounds. After a 5 minute incubation, negative and positive buffers were respectively added to the previous reaction mixture. As the substrate, ATP was added to the reaction buffer, and incubated for 30 minutes at 37° C. Enzymatic activity was stopped by the addition of colorimetric reagent (2X malachite green, 1X ammonium molybdate, X polyvinyl alcohol, 2X H2O) and the amount of mono phosphate (Pi) in the reaction was measured at 620nm using the micro plate reader (Genios Pro, TECAN). The difference between the Pi production with K^+and without K^+is taken as K^+stimulated H^+/K^+-ATPase activity. The IC50s of test compounds were calculated from each % inhibition value of compounds using the method of Litchfield-Wilcoxon (J. Pharmacol. Exp. Ther. (1949) 96, 99).

T1 sequence (P19156 whole entry): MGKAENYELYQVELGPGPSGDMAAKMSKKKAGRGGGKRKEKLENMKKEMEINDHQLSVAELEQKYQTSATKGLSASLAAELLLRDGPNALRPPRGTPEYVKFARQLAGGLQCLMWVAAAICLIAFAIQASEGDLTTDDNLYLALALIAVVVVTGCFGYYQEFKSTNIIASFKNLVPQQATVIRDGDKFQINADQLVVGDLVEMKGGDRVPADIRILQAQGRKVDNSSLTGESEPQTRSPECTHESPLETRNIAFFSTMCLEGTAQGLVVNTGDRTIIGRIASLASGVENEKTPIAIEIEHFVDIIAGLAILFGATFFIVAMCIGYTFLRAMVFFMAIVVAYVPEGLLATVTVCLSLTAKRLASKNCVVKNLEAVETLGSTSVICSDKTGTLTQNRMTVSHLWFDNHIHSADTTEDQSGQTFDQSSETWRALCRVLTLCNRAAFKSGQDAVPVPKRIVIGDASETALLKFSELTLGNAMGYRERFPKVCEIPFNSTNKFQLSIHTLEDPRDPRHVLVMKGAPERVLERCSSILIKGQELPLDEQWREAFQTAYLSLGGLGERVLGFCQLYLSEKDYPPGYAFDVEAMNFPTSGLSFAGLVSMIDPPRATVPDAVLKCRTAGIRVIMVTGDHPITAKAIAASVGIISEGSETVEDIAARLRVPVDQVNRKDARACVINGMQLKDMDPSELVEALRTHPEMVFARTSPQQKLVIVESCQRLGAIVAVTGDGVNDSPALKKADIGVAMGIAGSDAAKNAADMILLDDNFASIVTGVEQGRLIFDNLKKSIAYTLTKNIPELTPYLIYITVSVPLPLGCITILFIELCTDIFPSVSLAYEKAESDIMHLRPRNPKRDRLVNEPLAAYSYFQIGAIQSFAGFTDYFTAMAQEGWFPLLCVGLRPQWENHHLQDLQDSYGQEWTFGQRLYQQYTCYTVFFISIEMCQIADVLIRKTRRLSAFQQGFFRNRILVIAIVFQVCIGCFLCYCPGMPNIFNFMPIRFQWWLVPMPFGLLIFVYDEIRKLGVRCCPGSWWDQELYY
T1 sequence (P18434 whole entry partner): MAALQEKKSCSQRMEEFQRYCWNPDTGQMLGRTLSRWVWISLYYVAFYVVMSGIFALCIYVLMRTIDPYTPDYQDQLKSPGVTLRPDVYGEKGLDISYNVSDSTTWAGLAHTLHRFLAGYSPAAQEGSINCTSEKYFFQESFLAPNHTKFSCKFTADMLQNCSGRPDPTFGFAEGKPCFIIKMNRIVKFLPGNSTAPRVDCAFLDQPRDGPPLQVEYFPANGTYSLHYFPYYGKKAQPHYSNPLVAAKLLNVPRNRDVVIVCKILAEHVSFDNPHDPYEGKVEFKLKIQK

SMILES	IC50 [nM]
C=CCn1c(C)c(C)c2cncc(OCc3ccc(F)cc3)c21 [Example 5, 1-allyl-7-(4-fluorobenzyloxy)-2,3-dimethyl-1H-pyrrolo[3,2-c]pyridine hydrochloride]	280
Cc1c(C)n(Cc2ccc(C(F)(F)F)cc2)c2c(OCc3ccc(F)cc3)cncc12 [Example 10, 7-(4-fluorobenzyloxy)-2,3-dimethyl-1-(4-trifluoromethylbenzyl)-1H -pyrrolo[3,2-c]pyridine hydrochloride]	340
Cc1ccc(C)c(Cn2c(C)c(C)c3cncc(OCc4ccc(F)cc4)c32)c1 [Example 13, 1-(2,5-dimethylbenzyl)-7-(4-fluorobenzyloxy)-2,3-dimethyl-1H -pyrrolo[3,2-c]pyridine hydrochloride]	1020
Cc1c(C)n(Cc2ccccc2Cl)c2c(OCc3ccc(F)cc3)cncc12 [Example 14, 1-(2-chlorobenzyl)-7-(4-fluorobenzyloxy)-2,3-dimethyl-1H -pyrrolo[3,2-c]pyridine hydrochloride]	460
Cc1[nH]c2c(N3CCc4ccccc4C3)cncc2c1C [Example 27, 2-(2,3-dimethyl-1H-pyrrolo[3,2-c]pyridin-7-yl)-1,2,3,4-tetrahydroisoquinoline hydrochloride]	460
COC(=O)c1ccc(Cn2c(C)c(C)c3cncc(N4CCc5ccccc5C4)c32)cc1 [Example 29, 1-(4-methoxycarbonylbenzyl)-7-(1,2,3,4-tetrahydroisoquinolin-2-yl)-2,3-dimethyl-1H-pyrrolo[3,2-c]pyridine hydrochloride]	320
Cc1c(C)n(Cc2ccc3ccccc3c2)c2c(N3CCc4ccccc4C3)cncc12 [Example 32, 1-(2-naphthylmethyl)-7-(1,2,3,4-tetrahydroisoquinolin-2-yl)-2,3-dimethyl-1H -pyrrolo[3,2-c]pyridine hydrochloride]	290
C=COCCn1c(C)c(C)c2cncc(N3CCc4ccccc4C3)c21 [Example 33, 1-(2-vinyloxyethyl)-7-(1,2,3,4-tetrahydroisoquinolin-2-yl)-2,3-dimethyl-1H -pyrrolo[3,2-c]pyridine hydrochloride]	410
Cc1c(C)n(CC2OCCO2)c2c(N3CCc4ccccc4C3)cncc12 [Example 34, 1-(1,3-dioxolan-2-ylmethyl)-7-(1,2,3,4-tetrahydroisoquinolin-2-yl)-2,3-dimethyl-1H -pyrrolo[3,2-c]pyridine hydrochloride]	190
Cc1c(C)n(CC(C)C)c2c(N3CCc4ccccc4C3)cncc12 [Example 36, 1-isobutyl-7-(1,2,3,4-tetrahydroisoquinolin-2-yl)-2,3-dimethyl-1H -pyrrolo[3,2-c]pyridine hydrochloride]	310
Cc1c(C)n(CC2CCC2)c2c(N3CCc4ccccc4C3)cncc12 [Example 37, 1-cyclobutylmethyl-7-(1,2,3,4-tetrahydroisoquinolin-2-yl)-2,3-dimethyl-1H -pyrrolo[3,2-c]pyridine hydrochloride]	750
Cc1c(C)n(CC2CC2)c2c(N3CCc4ccccc4C3)cncc12 [Example 39, 2-(1-cyclopropylmethyl-2,3-dimethyl-1H-pyrrolo[3,2-c]pyridin-7-yl)-1,2,3,4-tetrahydroisoquinoline hydrochloride]	240
Cc1c(C)n(Cc2cccc(C#N)c2)c2c(N3CCc4ccccc4C3)cncc12 [Example 41, 3-[7-(3,4-dihydro-1H-isoquinolin-2-yl)-2,3-dimethylpyrrolo[3,2-c]pyridin-1-ylmethyl]-benzonitrile hydrochloride]	1810

Continued by falling IC50, values first:

IC50 [nM]	SMILES
190	Cc1c(C)n(Cc2ccccc2F)c2c(OCc3ccc(F)cc3)cncc12 [Example 15, 1-(2-fluorobenzyl)-7-(4-fluorobenzyloxy)-2,3-dimethyl-1H -pyrrolo[3,2-c]pyridine hydrochloride]
190	Cc1c(C)n(Cc2ccc(F)cc2)c2c(N3CCc4ccccc4C3)cncc12 [Example 28, 2-[1-(4-fluorobenzyl)-2,3-dimethyl-1H-pyrrolo[3,2-c]pyridin-7-yl]-1,2,3,4-tetrahydroisoquinoline hydrochloride]
170	Cc1c(C)n(Cc2ccc3c(c2)OCCO3)c2c(N3CCc4ccccc4C3)cncc12 [Example 30, 2-[1-(2,3-dihydrobenzo[1,4]dioxin-6-ylmethyl)-2,3-dimethyl-1H-pyrrolo[3,2-c]pyridin-7-yl]-1,2,3,4-tetrahydroisoquinoline hydrochloride]
170	COCCn1c(C)c(C)c2cncc(N3CCc4ccccc4C3)c21 [Example 31, 1-(2-methoxyethyl)-7-(1,2,3,4-tetrahydroisoquinolin-2-yl)-2,3-dimethyl-1H -pyrrolo[3,2-c]pyridine hydrochloride]
120	Cc1[nH]c2c(OCc3ccc(F)cc3)cncc2c1C [Example 1, 7-(4-fluorobenzyloxy)-2,3-dimethyl-1H-pyrrolo[3,2-c]pyridine hydrochloride]
60	COc1cccc(Cn2c(C)c(C)c3cncc(OCc4ccc(F)cc4)c32)c1 [Example 7, 7-(4-fluorobenzyloxy)-1-(3-methoxybenzyl)-2,3-dimethyl-1H -pyrrolo[3,2-c]pyridine hydrochloride]
60	Cc1ccc(Cn2c(C)c(C)c3cncc(OCc4ccc(F)cc4)c32)cc1 [Example 8, 7-(4-fluorobenzyloxy)-2,3-dimethyl-1-(4-methylbenzyl)-1H -pyrrolo[3,2-c]pyridine hydrochloride]
60	Cc1c(C)n(Cc2ccccc2)c2c(N3CCc4ccccc4C3)cncc12 [Example 35, 1-benzyl-7-(1,2,3,4-tetrahydroisoquinolin-2-yl)-2,3-dimethyl-1H -pyrrolo[3,2-c]pyridine hydrochloride]
50	Cc1c(C)n(Cc2ccc(F)cc2)c2c(OCc3ccc(F)cc3)cncc12 [Example 9, 1-(4-fluorobenzyl)-7-(4-fluorobenzyloxy)-2,3-dimethyl-1H -pyrrolo[3,2-c]pyridine hydrochloride]
40	CCn1c(C)c(C)c2cncc(OCc3ccc(F)cc3)c21 [Example 3, 1-ethyl-7-(4-fluorobenzyloxy)-2,3-dimethyl-1H-pyrrolo[3,2-c]pyridine hydrochloride]
30	Cc1c(C)n(Cc2cccc(F)c2)c2c(OCc3ccc(F)cc3)cncc12 [Example 6, 1-(3-fluorobenzyl)-7-(4-fluorobenzyloxy)-2,3-dimethyl-1H -pyrrolo[3,2-c]pyridine hydrochloride]
30	CCn1c(C)c(C)c2cncc(N3CCc4ccccc4C3)c21 [Example 40, 2-(1-ethyl-2,3-dimethyl-1H-pyrrolo[3,2-c]pyridin-7-yl)-1,2,3,4-tetrahydroisoquinoline hydrochloride]
10	Cc1c(C)n(CC2CC2)c2c(OCc3ccc(F)cc3)cncc12 [Example 4, 1-cyclopropylmethyl-7-(4-fluorobenzyloxy)-2,3-dimethyl-1H -pyrrolo[3,2-c]pyridine hydrochloride]
10	Cc1c(C)n(CC(C)C)c2c(OCc3ccc(F)cc3)cncc12 [Example 11, 7-(4-fluorobenzyloxy)-1-isobutyl-2,3-dimethyl-1H-pyrrolo[3,2-c]pyridine hydrochloride]
